Assay results: patent publication US20160220464A1 (WUHAN OPTICS VALLEY BRIDGEBIOMED INTERNATIONAL CORPORATION, priority 2013, published 2016)
Where two headings read alike, the source gives them in different places.

What was measured:
[1] = molecular target: T1, bradykinin (BK) B2 receptors (Homo sapiens, UniProt P30411); test: PG secretion by BK B2 receptor agonists (PG kit, OD), EC50 and Emax; assay type: cell-based; details: HASMC; for Emax: relative to BK
T1 construct: The cell strains used in the study were human primary vein endothelial cells (HPVEC) and human aortic smooth muscle cells (HASMC); endogenous in cells; host or cells: human primary vein endothelial cells (HPVEC) and human aortic smooth muscle cells (HASMC)
T1 sequence (P30411 1-391): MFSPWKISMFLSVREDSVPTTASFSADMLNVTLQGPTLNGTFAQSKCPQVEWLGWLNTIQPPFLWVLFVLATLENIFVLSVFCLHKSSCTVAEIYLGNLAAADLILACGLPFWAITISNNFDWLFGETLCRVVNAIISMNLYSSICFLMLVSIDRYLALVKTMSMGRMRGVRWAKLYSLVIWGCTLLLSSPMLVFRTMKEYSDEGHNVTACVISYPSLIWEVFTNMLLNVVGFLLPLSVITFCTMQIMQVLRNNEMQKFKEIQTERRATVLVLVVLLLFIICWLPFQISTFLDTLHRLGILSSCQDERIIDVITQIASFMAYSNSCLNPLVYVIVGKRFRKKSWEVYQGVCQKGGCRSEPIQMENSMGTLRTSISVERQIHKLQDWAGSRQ
Protocol: Implantation Two cell lines were transferred into T-75 cell culture flask, and then the instructions of PG kit were strictly followed when cells have reached the appropriate density. Day 1 Cells were seeded in 24 well dishes with minimum medium and allowed to adhere overnight. Day 2 Cells were starved in the serum-free conditioned medium. Day 3 Minimum medium were used, and YLB-01, YLB-02 and YLB-03 were added to the medium, in which the concentration was 0.1 nM, 1 nM, 10 nM, 30 nM, 100 nM, 300 nM, 1 μM, 3 μM and 10 μM, respectively; the cells were incubated at 37° C. for 1 h. The supernatant was collected after incubation for later use. Day 4 24 well dishes were washed and then dyed for 45-90 min, and then the OD value was measured for analysis. The cell strains used in the study were human primary vein endothelial cells (HPVEC) and human aortic smooth muscle cells (HASMC).

BK B2 receptor = molecular target: T2, BK B2 receptor (Homo sapiens, UniProt P30411); test: Relative amount of PG secretion in cell supernatant by enzyme immunoassay (EIA); assay type: cell-based; details: 1 h, 1 μM BK set as 100%
T2 construct: The cell strains used in the study were human primary vein endothelial cells (HPVEC) and human aortic smooth muscle cells (HASMC); endogenous in cells; host or cells: human primary vein endothelial cells (HPVEC) and human aortic smooth muscle cells (HASMC)
T2 sequence (P30411 1-391): T1 sequence (P30411 1-391)
Protocol: YLB-01, YLB-02 and YLB-03 were selected for the study as described below in Table 1, and BK was used as control. Implantation Two cell lines were transferred into T-75 cell culture flask, and then the instructions of PG kit were strictly followed when cells have reached the appropriate density. Day 1 Cells were seeded in 24 well dishes with minimum medium and allowed to adhere overnight. Day 2 Cells were starved in the serum-free conditioned medium. […] The supernatant was collected after incubation for later use. Day 4 24 well dishes were washed and then dyed for 45-90 min, and then the OD value was measured for analysis. […] In order to detect endogenous prostaglandin, enzyme immunoassay (EIA) was used to determine the amount of prostaglandin and subtypes thereof in the cell supernatant described above.

B2 receptor = molecular target: T3, B2 receptor (Homo sapiens, UniProt P30411); test: Relative PG secretion with B2 receptor inhibitor HOE-140; assay type: cell-based; details: 1 μM BK set as 100%
T3 construct: The cell strains used in the study were human primary vein endothelial cells (HPVEC) and human aortic smooth muscle cells (HASMC); endogenous in cells; host or cells: human primary vein endothelial cells (HPVEC) and human aortic smooth muscle cells (HASMC)
T3 sequence (P30411 1-391): T1 sequence (P30411 1-391)
Protocol: Two different cell lines were transferred into T-75 cell culture flask, and then the instructions of PG kit were strictly followed when cells have reached the appropriate density. Day 1. Cells were seeded in 24 well dishes with minimum medium and allowed to adhere overnight. Day 2. Cells were starved in the serum-free conditioned medium. Day 3. […] Cells were incubated at 37° C. for 1 h. The supernatant was collected after incubation for later use. Day 4. 24 well dishes were washed and then dyed for 45-90 min, and then the quantitative analysis was carried out.

[2] = system: human primary vein endothelial cells (HPVEC); test: PG subtype secretion by EIA in HPVEC; assay type: cell-based; details: 10 nM, 1 μM BK set as 100%
Protocol: In order to study of prostaglandin subtypes secretion triggered by activation of B2 receptor by these three compounds, human primary vein endothelial cells (HPVEC) and human aortic smooth muscle cells (HASMC) were used for PG secretion, following the same protocol above; 10 nM of these compounds, YLB-1, YLB-2, YLB-3 was added. […] These percentage values above were all calibrated with respect to bradykinin.

human lower leg hair = test: Hair growth after topical 0.3% suspension on human lower leg; assay type: in vivo; details: twice a day
Text: (§1) The B2 receptor agonist (YLB-01) suspension with 0.3% concentration was obtained for clinical use as described above. The suspension was applied to human lower leg twice a day, for 3 months; hair growth was observed. The treated areas were observed daily to monitor hair growth and side effects, e.g. swelling, pruritus, pain, etc. And the treated parts were photographed weekly.
as §1, with “above and” for “above. The suspension”

CNC(=O)c1ccc(CCC(=O)NCC(=O)N(C)c2ccc(Cl)c(COc3cccc4c3nc(OC)n4Cc3ccccn3)c2Cl)cc1 [YLB-01, 4-(3-2-((2,4-dichloro-3-((2-methoxy-1-(pyridine-2ylmethyl)-1H-benzo[d]imidazol-4-yloxy)methyl)phenyl)(methyl)amino-2-oxoethylamino)-3-oxopropyl)-N-methylbenzamid]
EC50 ([1]; 1 h incubation at 37° C.): 24.4 ± 3 nM | Emax ([1]; read-out: Emax): 87% | Emax [1]: 87.79 ± 4.2% | activation at 0.0001 µM (BK B2 receptor; 0.1 nM): 0% | activation at 0.001 µM (BK B2 receptor; 1 nM): 7.69 ± 2.19% | activation at 0.01 µM (BK B2 receptor; 10 nM): ~50% | activation at 0.03 µM (BK B2 receptor; 30 nM): 53.7 ± 4.56% | activation at 0.1 µM (BK B2 receptor; 100 nM): 73.4 ± 2.7% | activation at 0.3 µM (BK B2 receptor; 300 nM): 83.8 ± 6.45% | activation at 1 µM (BK B2 receptor; 1 μM): 87 ± 3.76% | activation at 3 µM (BK B2 receptor; 3 μM): 87.8 ± 4.2% | activation at 10 µM (BK B2 receptor; 10 μM): 86.5 ± 7.44% | Relative PG Secretion Amount with 1 μM HOE-140 (B2 receptor; agonist 0.1 nM + HOE-140 1 μM): 1.54 ± 2.53% | Relative PG Secretion Amount with 1 μM HOE-140 (B2 receptor; agonist 1 nM + HOE-140 1 μM): 4.21 ± 3.74% | Relative PG Secretion Amount with 1 μM HOE-140 (B2 receptor; agonist 10 nM + HOE-140 1 μM): 4.17 ± 3.21% | Relative PG Secretion Amount with 1 μM HOE-140 (B2 receptor; agonist 30 nM + HOE-140 1 μM): 2.86 ± 2.35% | Relative PG Secretion Amount with 1 μM HOE-140 (B2 receptor; agonist 100 nM + HOE-140 1 μM): 3.44 ± 3.77% | Relative PG Secretion Amount with 1 μM HOE-140 (B2 receptor; agonist 300 nM + HOE-140 1 μM): 0.45 ± 2.86% | Relative PG Secretion Amount with 1 μM HOE-140 (B2 receptor; agonist 1 μM + HOE-140 1 μM): 3.66 ± 2.11% | Relative PG Secretion Amount with 1 μM HOE-140 (B2 receptor; agonist 3 μM + HOE-140 1 μM): 6.98 ± 1.6% | Relative PG Secretion Amount with 1 μM HOE-140 (B2 receptor; agonist 10 μM + HOE-140 1 μM): 40.32 ± 3.27% | PGD2 [2]: undetectable | PGE2 [2]: 30.24 ± 5.40% | PGF-2a [2]: 6.29 ± 1.01% | hair growth (human lower leg hair; 0 week): 0 mm | hair growth (human lower leg hair; 2 weeks): 4.89 ± 0.38 mm | hair growth (human lower leg hair; 3 weeks): 6.82 ± 0.4 mm | hair growth (human lower leg hair; 4 weeks): 9.61 ± 0.55 mm | hair growth compared with control group (photos, FIG. 2) (human lower leg hair; 3 months): hairs grew more quickly than those in control group | new hair growth in parts used to be bald (photos, FIG. 1) (human lower leg hair; 3 months): tiny new hairs grew out
